Experimental data taken from the supplement of paper PMC10307832.

What was measured:
Assay in all cases: relative viability (nuclei count vs DMSO), 5 days (fraction); higher = more cells survive
[1] = tested on: HARA
Summary of the method: (§1)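 A single step with final 0.05% Triton X-100, 1% formaldehyde and 1 ug/ml Hoechst fixed the cells and stained nuclei 5 days after treatment. Lung cancer cell lines in 1536-well plates had been treated by pin tool the day after seeding with one drug alone or a fixed anchor-drug dose plus five library-drug doses (not always all listed) in √10 steps, and nuclei were counted on 4× images. Relative viability is the ratio of nuclei in treated wells to nuclei in vehicle wells, taken as the median of duplicate plates.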

[2] = tested on: NCI-H727
Summary of the method: as §1

[3] = tested on: EKVX
Summary of the method: as §1

[4] = tested on: NCI-H650
Summary of the method: as §1

[5] = tested on: NCI-H2126
Summary of the method: as §1

[6] = tested on: LOU-NH91
Summary of the method: as §1

[7] = tested on: NCI-H2405
Summary of the method: as §1

[8] = tested on: H3255
Summary of the method: as §1

[9] = tested on: PC-3 [JPC-3]
Summary of the method: as §1

[10] = tested on: NCI-H23
Summary of the method: as §1

[11] = tested on: HCC-827
Summary of the method: as §1

[12] = tested on: LCLC-103H
Summary of the method: as §1

[13] = tested on: NCI-H3122
Summary of the method: as §1

[14] = tested on: ChaGo-K-1
Summary of the method: as §1

[15] = tested on: HOP-62
Summary of the method: as §1

[16] = tested on: NCI-H596
Summary of the method: as §1

[17] = tested on: SW 900
Summary of the method: as §1

[18] = tested on: 201T
Summary of the method: as §1

[19] = tested on: NCI-H1975
Summary of the method: as §1

CN1CCN(CCOc2cc(OC3CCOCC3)c3c(Nc4c(Cl)ccc5c4OCO5)ncnc3c2)CC1 [Saracatinib] + NC(=O)Nc1cc(-c2cccc(F)c2)sc1C(=O)N[C@H]1CCCNC1 [AZD7762] (partner 0.2 µM)
relative viability ([1]; first compound 0.02 µM): 0.413 | relative viability ([1]; first compound 0.2 µM): 0.345 | relative viability ([1]; first compound 0.6325 µM): 0.247 | relative viability ([1]; first compound 2 µM): 0.355 | relative viability ([2]; first compound 0.02 µM): 0.683 | relative viability ([2]; first compound 0.2 µM): 0.522 | relative viability ([2]; first compound 0.6325 µM): 0.616 | relative viability ([2]; first compound 2 µM): 0.401 | relative viability ([3]; first compound 0.02 µM): 0.841 | relative viability ([3]; first compound 0.6325 µM): 0.659 | relative viability ([3]; first compound 2 µM): 0.29 | relative viability ([4]; first compound 0.02 µM): 0.984 | relative viability ([4]; first compound 0.2 µM): 1.04 | relative viability ([4]; first compound 0.6325 µM): 0.98 | relative viability ([4]; first compound 2 µM): 0.997 | relative viability ([5]; first compound 0.02 µM): 1 | relative viability ([5]; first compound 0.2 µM): 0.883 | relative viability ([5]; first compound 0.6325 µM): 1.01 | relative viability ([5]; first compound 2 µM): 0.993 | relative viability ([6]; first compound 0.02 µM): 0.785 | relative viability ([6]; first compound 0.2 µM): 0.722 | relative viability ([6]; first compound 0.6325 µM): 0.745 | relative viability ([6]; first compound 2 µM): 0.598 | relative viability ([7]; first compound 0.02 µM): 0.702 | relative viability ([7]; first compound 0.2 µM): 0.594 | relative viability ([7]; first compound 0.6325 µM): 0.554 | relative viability ([7]; first compound 2 µM): 0.388 | relative viability ([8]; first compound 0.02 µM): 0.959 | relative viability ([8]; first compound 0.2 µM): 0.917 | relative viability ([8]; first compound 0.6325 µM): 0.966 | relative viability ([8]; first compound 2 µM): 0.346 | relative viability ([9]; first compound 0.02 µM): 0.859 | relative viability ([9]; first compound 0.2 µM): 0.638 | relative viability ([9]; first compound 0.6325 µM): 0.573 | relative viability ([9]; first compound 2 µM): 0.448 | relative viability ([10]; first compound 0.02 µM): 0.243 | relative viability ([10]; first compound 0.6325 µM): 0.287 | relative viability ([10]; first compound 2 µM): 0.27 | relative viability ([11]; first compound 0.02 µM): 0.223 | relative viability ([11]; first compound 0.2 µM): 0.119 | relative viability ([11]; first compound 0.6325 µM): 0.145 | relative viability ([11]; first compound 2 µM): 0.11 | relative viability ([12]; first compound 0.02 µM): 0.855 | relative viability ([12]; first compound 0.2 µM): 0.711 | relative viability ([12]; first compound 0.6325 µM): 0.821 | relative viability ([12]; first compound 2 µM): 0.772 | relative viability ([13]; first compound 0.02 µM): 0.97 | relative viability ([13]; first compound 0.2 µM): 0.922 | relative viability ([13]; first compound 0.6325 µM): 0.889 | relative viability ([13]; first compound 2 µM): 0.698 | relative viability ([14]; first compound 0.02 µM): 0.895 | relative viability ([14]; first compound 0.2 µM): 0.614 | relative viability ([14]; first compound 0.6325 µM): 0.967 | relative viability ([14]; first compound 2 µM): 0.924 | relative viability ([15]; first compound 0.02 µM): 0.945 | relative viability ([15]; first compound 0.2 µM): 0.614 | relative viability ([15]; first compound 0.6325 µM): 0.707 | relative viability ([15]; first compound 2 µM): 0.905 | relative viability ([16]; first compound 0.02 µM): 1.12 | relative viability ([16]; first compound 0.2 µM): 1.05 | relative viability ([16]; first compound 0.6325 µM): 1.14 | relative viability ([16]; first compound 2 µM): 0.852 | relative viability ([17]; first compound 0.02 µM): 0.696 | relative viability ([17]; first compound 0.2 µM): 0.545 | relative viability ([17]; first compound 0.6325 µM): 0.533 | relative viability ([17]; first compound 2 µM): 0.492 | relative viability ([18]; first compound 0.02 µM): 0.554 | relative viability ([18]; first compound 0.2 µM): 0.446 | relative viability ([18]; first compound 0.6325 µM): 0.623 | relative viability ([18]; first compound 2 µM): 0.625 | relative viability ([19]; first compound 0.02 µM): 0.812 | relative viability ([19]; first compound 0.2 µM): 0.789 | relative viability ([19]; first compound 0.6325 µM): 0.659 | relative viability ([19]; first compound 2 µM): 0.468
